Assays:
KM mice = assay: Acute toxicity test of KM mice; type: in vivo
Procedure: 3. Acute Toxicity Test of KM Mice
3.1 I-1 Acute Toxicity Test of Intragastric Administration (ig) for Mice
3.2 I-1 Acute Toxicity Test of Subcutaneous Injection (sc) for Mice
After sc I-1 2000 mg/kg of mice under the conditions of maximum administration capacity and maximum administration concentration, no mice die and the mice toxic symptoms express as decrease in spontaneous activities and often creeping lying without moving. After about 48 h, mice activities begin to increase. Compared with the control group, the weight gain in subsequent observation period is slower.

PPARγ2-mRNA = assay: RT-PCR of PPARγ2-mRNA expression in 3T3-L1 cells; type: cell-based; details: during differentiation of preadipocyte 3T3-L1; GAPDH internal reference; FIG. 4
Procedure: 4.1.3 Reverse Transcription
Polymerase chain reaction (RT-PCR) experiment Extract the total RNA of fully differentiated 3T3-L1 cells to be reversely transcribed into cDNA. The primers are designed as follows:
• The length of the target product is 567 bp.
• The length of the target product is 424 bp.
PCR amplification conditions: initial denaturation at 94 for 5 min, then denaturize at 94 for 30 s, anneal at 57 for 40 s, and extend at 72 for 50 s, a total of 30 cycles. Finally extend at 72 for 10 min. Then conduct electrophoresis analysis with 1.5% agarose gel. GAPDH is used as the internal reference to alleviate the error between different samples. Compare the optical density of objective band with the optical density of amplified GAPDH band for analysis.

3T3-L1 cells [1] = assay: Cell proliferation determination with MTT method; type: cell-based; details: 25, 50, 100 and 200 μmol/L, 2 d; P<0.05 vs blank group; FIG. 1
Procedure: 4.1.1 Cell Proliferation Determination Experiment with MTT Method
Inoculate 3T3-L1 cells in 96-hole cell culture plate. After 2 d of conventional culture, replace with DMEM culture solutions with different concentrations (25, 50, 100 and 200 μmol/L) of Series I compounds. The control group is the culture solution containing 0.1% (V/V) ethanol (96%). 3 complex holes are set for each concentration in each group, processing 2 d. Discard the culture solution in the holes and add 20 μL MTT solution in each hole and culture at 37 for 4 h. Then discard the solution in the hole, add 100 μL DMSO solution in each hole, shake thoroughly and measure the absorbance (A) immediately in the enzyme-linked immunosorbent assay. The wavelength is measured to be 570 nm.

3T3-L1 cells [2] = assay: Oil red staining colorimetric experiment (preadipocyte differentiation); type: cell-based; details: 8th day of differentiation, 2nd day of administration; FIG. 2 and FIG. 3
Procedure: 4.1.2 Oil Red Staining Colorimetric Experiment
4.1.2.1 Culture 3T3-L1 cells in conventional medium and replace with differential medium I (DMEM culture solution containing 15% FBS, 0.4 mmol/L IBMX, 10 mg/L insulin and 1 μmol/L DEX) 2 d after the cells are completely merged (0 d of differentiation) for culture for 2 d. In the second day of differentiation, replace with differential medium II (DMEM culture solution containing 15% FBS and 10 mg/L insulin) to culture cells. In the 6th day of differentiation and later, replace with corresponding DMEM culture solution containing series I compounds. The control group is the complete culture solution without drugs.
4.1.2.2. Oil Red O Staining
In the 8th day of differentiation, discard the culture solution in the holes, wash with PBS for twice and add the solution containing 10% methanal to fix cells for 2 h. Wash with PBS for twice and stain with 0.5% oil red for 2 h. Wash with PBS for three times, dry at 37, add isopropanol, extract for 10 min and measure the absorbance value of the extract liquor at 492 nm.

High Fat Diet Rats = assay: Losing weight and depressing blood fat in high-fat diet SD rats; type: in vivo; details: intragastric once a day for a month, compounds 25 mg/kg, sibutramine 1.0 mg/kg, mean ± SD, n = 10
Procedure: 1. Activity Determination of Losing Weight and Depressing Blood Fat of SD Rats
The experiment refers to the methods in Experimental Methodology of Pharmacology compiled by Xu Shuyun et al, People's Medical Publishing House 2002: 1189-1201, which is slightly modified.
SD rates (weight 80 g-100 g, male, clean grade) are randomly divided into the following groups according to the weight:
Blank control group (normal diet group); model control group (high-fat diet group); sibutramine, 1.0 mg/kg; Group I-1, 25 mg/kg; Group I-2, 25 mg/kg; Group I-3, 25 mg/kg; Group II-1, 25 mg/kg; Group II-2, 25 mg/kg; Group II-3, 25 mg/kg.
Except the blank control group, the other groups are fed with high-fat diet for two months. In the third month, all groups are required for intragastric administration and the blank control group and model control group are given appropriate volume of excipients once a day for a consecutive month. After the administration, exsanguinate and kill the rats, take femoral arterial blood and separate the plasma, and then measure the parameters according to the unified operating procedures in the kit instructions. Remove the fat around abdominal cavity and reproductive organs, weigh its wet weight and determine the body weight.

[3] = tested on: high fat and high sugar model ICR mice; assay: Losing weight, depressing blood fat and regulating blood sugar balance in high fat and high sugar ICR mice; type: in vivo; parameters: Serum insulin concentration INS: unit not given here; details: n = 10, x ± s; for Celiac total fat / Epididymal fat / MDA (serum oxidative damage indicator) / Mesenteric fat / Perirenal fat / SOD (serum oxidative damage indicator) / Serum insulin concentration INS / Subcutaneous fat / FFA / HDL-C / LDL-C / TC / TG: 50 mg/kg intragastric for 30 days; for Body weight 1 week after / Body weight 2 weeks after / Body weight 3 weeks after / Body weight before administration: high fat and high sugar model; for Body weight 1 week after / Body weight 2 weeks after / Body weight 3 weeks after: 50 mg/kg intragastric daily; for Body weight before administration: baseline before 50 mg/kg intragastric; for FFA / HDL-C / LDL-C / TC / TG: serum
Excerpt: 2. Activity Determination of Losing Weight, Depressing Blood Fat and Regulating Blood Sugar Balance of ICR Mice
The experiment refers to the methods of Raquel Ferrer-Lorente et al (European Journal of Pharmacology, 2005, 513: 243-248), which are slightly modified.
Take 40 ICR mice (male, weight 13-15 g) and randomly divide them into two large groups according to their weight, a normal diet group (n=10) and a high fat and high sugar model group (n=30); give normal diet to the normal diet group and conduct subcutaneous injection of physiological saline each day; give high-fat and high-sugar diet to the high fat and high sugar model group and conduct subcutaneous injection of insulin (0.5 U/kg) each day. The food is not restricted. Measure the food regularly each day, weigh the weight once a week and feed 7 consecutive weeks.
7 weeks after modeling, the normal diet group is unchanged and the high fat and high sugar model group is divided into model control group (n=10), I-1 administration group (n=10) and I-2 administration group (n=10). The feed of each group is unchanged. The administration group is given corresponding compounds with the dose of 50 mg/kg and the blank group is given the equal volume of blank solvent. Conduct intragastric administration on each group for consecutive 30 days. Weigh 12 h after fasting after last administration, take the eyeballs for blood, prepare serum, determine the blood fat (triglyceride TG, free fatty acid FFA, total cholesterol TC, low density lipoprotein cholesterol LDL-C and high density lipoprotein cholesterol HDL-C) content and blood insulin content and detect the oxidative damage indicators in the blood (malondialdehyde MAD and superoxide dismutase SOD). Take off the cervical vertebrae to kill the rats, separate the perirenal, testicular, mesenteric and inguinal (subcutaneous) white adipose tissue, wash clean with cold physiological saline and dry with filter paper, and then weigh.

Row | SMILES | PPARγ2-mRNA expression quantity (PPARγ2-mRNA) | Fat index (High Fat Diet Rats) | Free fatty acid FFA (High Fat Diet Rats) | Total cholesterol TC (High Fat Diet Rats) | Triglyceride TG (High Fat Diet Rats) | Weight after administration (High Fat Diet Rats) | Celiac total fat [3] | Epididymal fat [3] | MDA (serum oxidative damage indicator) [3] | Mesenteric fat [3] | Perirenal fat [3] | SOD (serum oxidative damage indicator) [3] | Serum insulin concentration INS [3] | Subcutaneous fat [3] | Body weight 1 week after [3] | Body weight 2 weeks after [3] | Body weight 3 weeks after [3] | Body weight before administration [3] | FFA [3] | HDL-C [3] | other results
1 | CCCCCCCC/C=C\CCCCCCCC(=O)Oc1ccc2c(=O)c(-c3ccc(OC)cc3)coc2c1 [I-1, 4′-methoxy-7-O-oleoyl daizeol] | increased | 5.0 ± 1.6 g/100 g | 606.7 ± 144.7 µmol/L | 1.31 ± 0.27 mmol/L | 0.91 ± 0.22 mmol/L | 309 ± 36 g | 0.595 ± 0.172 g | 0.382 ± 0.230 g | 0.810 ± 0.162 nmol/L | 0.135 ± 0.047 g | 0.078 ± 0.050 g | 382.3 ± 200.9 U/ml | 20.26 ± 2.69 | 0.136 ± 0.065 g | 39.1 ± 5.2 g | 33.8 ± 3.7 g | 31.5 ± 2.0 g | 41.8 ± 5.7 g | 0.55 ± 0.14 mmol/L | 1.70 ± 0.53 mmol/L | LD50 (KM mice; intragastric administration (ig)): 2163.8 mg/kg; Mortality (KM mice; subcutaneous injection (sc) 2000 mg/kg, maximum administration capacity and concentration): no mice die; Proliferation of preadipocyte 3T3-L1 (MTT, OD value) (3T3-L1 cells [1]): significant inhibition action; Adipose differentiation of 3T3-L1 cells (oil red stained lipid droplets) (3T3-L1 cells [2]): lipid droplets are significantly decreased; LDL-C [3]: 1.068 ± 0.636 mmol/L; TC [3]: 2.79 ± 0.39 mmol/L; TG [3]: 0.97 ± 0.21 mmol/L
2 | CCCCC/C=C\C/C=C\CCCCCCCC(=O)Oc1ccc2c(=O)c(-c3ccc(OC)cc3)coc2c1 [I-2, 4′-methoxy-7-O-linoleoyl daizeol] | increased | 4.3 ± 1.5 g/100 g | 603.8 ± 163.5 µmol/L | 1.28 ± 0.26 mmol/L | 0.99 ± 0.21 mmol/L | 307 ± 32 g | 0.329 ± 0.403 g | 0.212 ± 0.239 g | 1.288 ± 0.145 nmol/L | 0.058 ± 0.101 g | 0.059 ± 0.057 g | 424.1 ± 192.8 U/ml | 22.32 ± 6.39 | 0.099 ± 0.071 g | 39.1 ± 4.1 g | 32.9 ± 5.7 g | 29.5 ± 2.3 g | 42.0 ± 4.4 g | 0.43 ± 0.04 mmol/L | 1.56 ± 0.29 mmol/L | LDL-C [3]: 0.880 ± 0.655 mmol/L; TC [3]: 3.18 ± 0.46 mmol/L; TG [3]: 0.71 ± 0.22 mmol/L
3 | CCCCCCCCCCCCCCCCCC(=O)Oc1ccc2c(=O)c(-c3ccc(OC)cc3)coc2c1 [I-3, 4′-methoxy-7-O-stearoyl daizeol] | significantly decreased | 5.4 ± 1.2 g/100 g | 730.2 ± 186.0 µmol/L | 1.57 ± 0.30 mmol/L | 1.19 ± 0.30 mmol/L | 320 ± 34 g | – | – | – | – | – | – | – | – | – | – | – | – | – | – | –
4 | CCCCCCCCCCCCCCCC(=O)Oc1ccc2c(=O)c(-c3ccc(OC)cc3)coc2c1 [I-4, 4′-methoxy-7-O-palmityl daizeol] | significantly decreased | – | – | – | – | – | – | – | – | – | – | – | – | – | – | – | – | – | – | – | –
